Results from patent publication US20150231190A1, “COMPOSITIONS COMPRISING SIRAITIA GROSVENORI EXTRACTS AND METHODS FOR THE TREATMENT OF INFECTION” (Cascade Estates Limited, priority 2007, published 2015).

How the values were obtained:
[1] = tested on: Bovine Viral Diarrhoea Virus (BVDV), strain NADL; assay: Antiviral fluorometric cytoproliferation assay against BVDV in BT turbinate cells; type: cell-based; settings: fluvastatin alone 0.3125 μg/mL
Experimental: The Luo Han Guo extract was tested independently at a wide range of concentrations. The extract was tested in two assays, one at 100, 50, 25, 12.5 and 6.25 μg/mL and the other at 3600, 1200, 400, 133.3 and 44.4 μg/mL.
Bos taurus (BT) turbinate cells were used as host cells for the virus. After the cells were plated and allowed to grow overnight, The extract was added and then the virus was inoculated into the cultures. The cultures were allowed to grow for 7 days and then a fluorometric cytoproliferation assay was run. The data from all replicate cultures was averaged and compared to the growth of the negative controls (no virus or extract). The extract was present during absorption and in the media for the duration of the assays. A titration was run on the virus under the assay conditions but without the extract to determine the optimal viral inoculum for the antiviral assay. A dilution of 10^−4 of the stock virus was determined to be the correct inoculum for the antiviral assays. The growth medium used was Dulbecco's Minimum Eagle's Medium and 10% filtered horse serum. […]
The inhibition index was calculated as one minus the ratio of the average fluorescent units of the positive control to the average fluorescent units of infected cultures with a particular concentration of extract (1−(average positive control+average with extract)). […]

[2] = Water solubility (stated); type: physicochemical
HIV-1 strain IIIB = assay: HIV-1 p24 antigen capture ELISA antiviral assay in H9 cells; type: cell-based; settings: for % Positive Control (HIV-1 p24): 7 days
Text: (§1) H9 cells were used as host cells for the virus. H9 is a human T cell clone selected for high yield permissive growth of HIV-1, cloned from Hut 78, a human T cell lymphoma cell line with an inducer/helper phenotype derived from the peripheral blood of a patient with Sezary Syndrome.
The virus used was HIV-1, Strain IIIB, Catalog No 10-124-000, Lot No. 6M0008-DP.
A titration was run on the virus under the assay conditions without the experimental compounds to determine the viral inoculum for the antiviral assay, that is the lowest multiplicity of infection (MOI) that will infect all positive control cultures. The inoculum was approximately seven times the TCID50/mL of the stock virus.
1 mL cultures were plated with approximately 2.5×10^5 cells per culture. Four replicates were run for each assay condition.
The virus was absorbed onto the host cells in the presence of a reduced volume of culture medium for 2 hours. The inoculum was then washed off the cells with phosphate buffered saline. […] The growth medium used was RPMI 1640 with 10% fetal bovine serum and 50 μg/mL gentamicin.
The assay was run for 7 days and re-fed media with appropriate compound concentrations at 4 days.
The amount of virus proliferation was measured using an HIV-1 p24 antigen capture ELISA. At 7 days, supernatants were harvested and frozen. Supernatants were thawed and diluted as necessary, and the HIV-1 p24 ELISA assay was run. Excess supernatant was refrozen and held for 3 months. The HIV-1 p24 […] of replicate cultures were averaged and presented as a percentage of the positive control.
An inhibition index of zero indicated no efficacy. The closer to 1 the inhibition index was, the greater the efficacy.

H9 cells = assay: Cytotoxicity control by microscopic inspection of cells; settings: for Cytotoxicity (Appearance of cells): no virus
Text: as §1
Cytotoxicity was judged from the microscopic inspection of the cells.

## CC(C)n1c(/C=C/[C@H](O)C[C@H](O)CC(=O)O)c(-c2ccc(F)cc2)c2ccccc21 (racemic) [fluvastatin, 7-[3-(4-fluorophenyl)-1-(1-methylethyl)-1H-indol-2-yl]-3,5-dihydroxy-hept-6-enoic acid]
[1]
  Antiviral activity against BVDV: no antiviral activity
[2]
  Water solubility: water soluble

## C[C@H](CC[C@@H](O[C@@H]1O[C@H](CO[C@@H]2O[C@H](CO)[C@@H](O)[C@H](O)[C@H]2O)[C@@H](O)[C@H](O)[C@H]1O[C@@H]1O[C@H](CO)[C@@H](O)[C@H](O)[C@H]1O)C(C)(C)O)[C@H]1CC[C@@]2(C)[C@@H]3CC=C4[C@@H](CC[C@H](O[C@@H]5O[C@H](CO[C@@H]6O[C@H](CO)[C@@H](O)[C@H](O)[C@H]6O)[C@@H](O)[C@H](O)[C@H]5O)C4(C)C)[C@]3(C)[C@H](O)C[C@]12C [Mogroside V, mogroside V]
HIV-1 strain IIIB
  Concentration most effective against HIV-1: 6 µg/mL
HIV-1 strain IIIB; Mogroside V 2 μg/mL
  Efficacy: Partial (partially efficacious if cultures had an inhibition index between 0.20 and 0.89)
  % Positive Control (HIV-1 p24): 48%
HIV-1 strain IIIB; Mogroside V 6 μg/mL
  Effectiveness at suppressing HIV-1 replication: ~80%
  Efficacy: Partial (partially efficacious if cultures had an inhibition index between 0.20 and 0.89)
  % Positive Control (HIV-1 p24): 21%
HIV-1 strain IIIB; Mogroside V 12 μg/mL
  Efficacy: Partial (partially efficacious if cultures had an inhibition index between 0.20 and 0.89)
  % Positive Control (HIV-1 p24): 34%
HIV-1 strain IIIB; Mogroside V 36 μg/mL
  Efficacy: Partial (partially efficacious if cultures had an inhibition index between 0.20 and 0.89)
  % Positive Control (HIV-1 p24): 59%
HIV-1 strain IIIB; Mogroside V 100 μg/mL
  Efficacy: None (as having no efficacy if cultures had an inhibition index of less than 0.20)
  % Positive Control (HIV-1 p24): 88%
H9 cells; Mogroside V 2 μg/mL
  Cytotoxicity (Appearance of cells): Normal
H9 cells; Mogroside V 6 μg/mL
  Cytotoxicity (Appearance of cells): Normal
H9 cells; Mogroside V 12 μg/mL
  Cytotoxicity (Appearance of cells): Normal
H9 cells; Mogroside V 36 μg/mL
  Cytotoxicity (Appearance of cells): Normal
H9 cells; Mogroside V 100 μg/mL
  Cytotoxicity (Appearance of cells): Normal
H9 cells; entire range of concentrations used (2 to 100 μg/mL)
  Cytotoxicity, as determined by microscopic inspection: no cytotoxicity
